This is an account of results in paper PMC11997541, “Synthesis and Biological Activity of Ultrashort Antimicrobial Peptides Bearing a Non‐Coded Amino Acid” (Journal of Peptide Science, 2025).

Residues, ends and D or L forms follow the SMILES beside them.

Series [1] relates to S. ent. ATCC 13076. The experiment in a line: Kirby–Bauer disk diffusion. The format is cell-based, Salmonella enterica. Particulars: 20 h; for diameter of growth inhibition, S. ent. ATCC 13076: 100 μg peptide per 6 mm disk, Mueller–Hinton pH 7.2–7.4, 37°C, — read as no inhibition. On the procedure:
(§1) The antibacterial activity was tested on Gram‐positive ( Staphylococcus aureus ATCC 25923, Streptococcus pyogenes ATCC 19615, Listeria monocytogenes ATCC 7644, Bacillus subtilis ATCC […], Enterococcus faecalis ATCC 29212, E. faecalis ATCC 51299, and some clinical isolates, Streptococcus mitis , Streptococcus oralis , S. pyogenes Group A and Streptococcus Group G), Gram‐negative ( Klebsiella aerogenes ATCC 13048, Salmonella enterica ATCC […], Escherichia coli ATCC 25922, Pseudomonas aeruginosa ATCC 27853, Acinetobacter baumannii ATCC […], Klebsiella pneumoniae ATCC 13883, Proteu mirabilis ATCC 14153) bacterial strains, and Saccharomyces cerevisiae ATCC 9763, according to the standardized disk diffusion Kirby–Bauer method.
(§2) Peptide solutions in DMSO were adsorbed into paper disks (Macherey‐Nagel 615, Germany) of 6 mm in diameter. Every disk was loaded with 100 μg of peptide. The bacteria inoculum was of 0.5 Mc Farland, corresponding to 1–2 x 10^8 CFU/mL. The tests were carried out on Mueller–Hinton culture medium at pH 7.2–7.4 with incubation at 37°C for 20 h. Peptide activity was determined by measuring the diameters (in millimeters) of bacteria/fungi growth inhibition around the paper disks.
In general terms: Agar diffusion results depend on both activity and mobility in agar.

The conditions of series [2]: no CD signal in phosphate buffer (PB) pH 7.4, peptide 1 mM, room temperature. On the procedure:
Electronic CD curves in the amide region (190–260 nm) were obtained on a Jasco (Tokyo, Japan) model J‐1500 spectropolarimeter. A fused quartz cell of 0.02 cm pathlength (Hellma, Mühlheim, Germany) was used to record spectra in phosphate buffer pH 7.4 (PB), and aqueous sodium dodecyl sulfate (SDS, 30 mM). Spectra were collected at room temperature with peptide concentrations of 1 mM. After baseline subtraction, the values recorded were transformed into [θ]T, the total molar ellipticity (deg × cm^2 × dmol^−1) by means of the JASCO software Spectra Manager.

Series [3] in a line: Peptide stability in serum. The format is in vitro ADME. The conditions noted are these: human serum in HEPES 25 mM pH 7.6, 37°C, over 24 h, HPLC or HPLC–MS, triplicate. On the procedure:
The peptides were dissolved in DMSO at a concentration of 5 mg/mL. In Eppendorf tubes, 1 mL of HEPES buffer (25 mM, pH = 7.6) was temperature equilibrated at 37°C before adding 250 μL of human serum and 20 μL of peptide solution. The reaction was monitored for 24 h. At fixed intervals, 100 μL of the solution was withdrawn and added with 200 μL of absolute ethanol. The sample was kept on ice for 15 min and then centrifuged at 16,000 g for 5 min. Finally, the supernatant solution was analyzed by HPLC or HPLC–MS..
A peptide of similar length, not resistant to degradation in serum, was used as a positive test. The peptide sequence is as follows: Tyr‐Ser‐Ser‐Phe‐Leu.
To verify peptide stability in buffer solution, samples containing peptide solutions, buffer, and ethanol were also analyzed. All of the degradation experiments were carried out in triplicate.

Series [4] has as its system various bacterial strains, both Gram‐positive and Gram‐negative, as well as S. cerevisiae. As to the kind of experiment: Kirby–Bauer disk diffusion, whole panel. The format is cell-based. The conditions noted are these: 100 μg peptide per disk, 37°C, 20 h, all strains tested. On the procedure: as §1, §2

As to `CCCCCCCCCCCCCCCC(=O)N[C@@H](Cc1c[nH]cn1)C(=O)N[C@@H](C)C(=O)N[C@H](C)C(=O)N[C@@H](Cc1c[nH]cn1)C(N)=O` [P0, Palm‐His‐Ala‐D‐Ala‐His‐NH2] (HELM PEPTIDE1{[CCCCCCCCCCCCCCCC(=O)[*:2]].H.A.[dA].H.[am]}$$$$V2.0), the “diameter of growth inhibition, S. ent. ATCC 13076” value in series [1] is 10 mm. The “activity against Salmonella enterica ATCC 13076, in words” value in series [1] (100 μg peptide per disk, 37°C) was “selectively active”. Besides, the “solubility in water, in words” value in series [2] is “poor solubility in water”. For `CCCCCCCCCCCCCCCC(=O)N[C@@H](Cn1ccnc1)C(=O)N[C@@H](C)C(=O)N[C@H](C)C(=O)N[C@@H](Cn1ccnc1)C(N)=O` [P1, Palm‐L‐His*‐Ala‐D‐Ala‐L‐His*‐NH2], the “solubility in water, in words” value in series [2] is on record as “poor solubility in water”. As to `CCCCCCCCCCCCCCCC(=O)N[C@H](Cn1ccnc1)C(=O)N[C@@H](C)C(=O)N[C@H](C)C(=O)N[C@H](Cn1ccnc1)C(N)=O` [P2, Palm‐D‐His*‐Ala‐D‐Ala‐D‐His*‐NH2], the “serum stability, ranking in words” value in series [3] is reported as “best candidates in terms of serum stability”. Also, in series [2], the “solubility in water, in words” value is reported as “poor solubility in water”.

With `CC(=O)N[C@@H](Cc1c[nH]cn1)C(=O)N[C@@H](C)C(=O)N[C@H](C)C(=O)N[C@@H](Cc1c[nH]cn1)C(=O)NCCCCCCCCCCC(N)=O` [P3, Ac‐His‐Ala‐D‐Ala‐His‐Aun‐NH2] (HELM PEPTIDE1{[ac].H.A.[dA].H.[O=C(CCCCCCCCCCN[*:1])[*:2]].[am]}$$$$V2.0), the “antimicrobial activity over the panel, in words” value in series [4] is “no activity”. Take `CCCCCCCCCCCC(=O)N[C@@H](Cc1c[nH]cn1)C(=O)N[C@@H](C)C(=O)N[C@H](C)C(=O)N[C@@H](Cc1c[nH]cn1)C(N)=O` [P6, Laur‐His‐Ala‐D‐Ala‐His‐NH2] (HELM PEPTIDE1{[CCCCCCCCCCCC(=O)[*:2]].H.A.[dA].H.[am]}$$$$V2.0): in series [1], the “diameter of growth inhibition, S. ent. ATCC 13076” value was found to be 9 mm. As for `CCCCCCCCCCCC(=O)N[C@H](Cn1ccnc1)C(=O)N[C@@H](C)C(=O)N[C@H](C)C(=O)N[C@H](Cn1ccnc1)C(N)=O` [P8, Laur‐D‐His*‐Ala‐D‐Ala‐D‐His*‐NH2], the “serum stability, ranking in words” value in series [3] is “best candidates in terms of serum stability”.
